These compounds were tested against GLP-1 Receptor (Homo sapiens (Human), UniProt P43220) (assay: GLP-1R agonist cAMP stimulation assay (HEK293/GLP1R/CRE-LUC cells)). Settings: 30 min incubation, read-out: GLP1R cAMP Stimulation DR: EC50.
Chain of GLP-1 Receptor (P43220 24-463): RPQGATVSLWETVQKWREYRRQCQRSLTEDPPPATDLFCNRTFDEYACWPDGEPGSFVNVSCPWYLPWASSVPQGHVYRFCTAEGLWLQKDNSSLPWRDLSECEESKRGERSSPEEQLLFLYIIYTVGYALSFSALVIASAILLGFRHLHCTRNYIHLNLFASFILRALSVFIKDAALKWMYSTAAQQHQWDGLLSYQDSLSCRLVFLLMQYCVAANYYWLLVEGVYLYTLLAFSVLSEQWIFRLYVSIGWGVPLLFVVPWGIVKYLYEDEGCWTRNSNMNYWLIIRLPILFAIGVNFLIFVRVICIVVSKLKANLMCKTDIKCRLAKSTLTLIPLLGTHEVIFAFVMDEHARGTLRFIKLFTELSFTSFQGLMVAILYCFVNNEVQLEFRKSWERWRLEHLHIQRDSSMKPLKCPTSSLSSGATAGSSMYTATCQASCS
Type: cell-based
Description: Activation of GLP-1 receptor is known to stimulate cyclic AMP (cAMP) production in cells which indicates primary coupling to the Gαs subunit of the G protein heterotrimeric complex.
To optimize functional activity directed toward Gαs coupling, a HEK293/CRELuc cell line developed by HDB stably expressing the GLP-1 Receptor was used. 200× concentration of compound working solutions were prepared (Agilent Technologies Bravo) with 1/2 log serial dilution in 384-well Echo LDV plate (Labcyte, Cat #LP-0200). 50 nL/well 200× concentration of compound working solutions were moved to 384-well white low volume plate (Greiner, Cat #784075) using Labcyte ECHO550. 1×10^5 cells/mL HEK293/GLP1R/CRE-LUC (HD Biosciences) cell suspensions prepared with assay buffer [DPBS containing 0.5 mM IBMX (Sigma,Cat #I5879) and 0.1% BSA (GENVIEW, Cat #FA016-100 g)], 10 uL cell suspensions were added to each well of previous generated assay plate which already contains 50 nl compound at 200× concentration using ThermoFisher Multidrop Combi (1000cells/well). Seal the plate and incubate at 37° C. with 5% CO2 for 30 min.
After incubation the CAMP assay signal was generated using cAMP dynamic 2 Kit (Cisbio). 5 μL cAMP-d2 working solution was added to each well, followed with 5 μL Anti-cAMP antibody-cryptate working solution added to each well using ThermoFisher Multidrop Combi. Incubate at room temperature for 1 hour protected from light. Read the fluorescence at 665 and 615 nm with Reader PerkinElmer En Vision.
With `O=C(O)c1ccc2nc(CN3CCC(c4cccc5c4OCC(c4ccccc4F)O5)CC3)n(C[C@@H]3CCO3)c2n1` (stereo partly drawn) [Compound 109a, 2-((4-(2-(2-fluorophenyl)-2,3-dihydrobenzo[b][1,4]dioxin-5-yl)piperidin-1-yl)methyl)-3-(((S)-oxetan-2-yl)methyl)-3H-imidazo[4,5-b]pyridine-5-carboxylic acid] the EC50 was 20 to 200 nM.
`O=C(O)c1ccc2nc(CN3CCC(c4cccc5c4OCC(c4ccc(Cl)cc4)O5)CC3)n(C[C@@H]3CCO3)c2n1` (stereo partly drawn) [Compound 111a, 2-((4-(2-(4-chlorophenyl)-2,3-dihydrobenzo[b][1,4]dioxin-5-yl)piperidin-1-yl)methyl)-3-(((S)-oxetan-2-yl)methyl)-3H-imidazo[4,5-b]pyridine-5-carboxylic acid] gave an EC50 of no more than 0.2 nM.
`O=C(O)c1ccc2nc(CN3CCC(c4cccc5c4OC[C@@H](c4ccc(Cl)cc4)O5)CC3)n(C[C@@H]3CCO3)c2n1` [Compound 111b, 2-((4-((R)-2-(4-chlorophenyl)-2,3-dihydrobenzo[b][1,4]dioxin-5-yl)piperidin-1-yl)methyl)-3-((S)-oxetan-2-ylmethyl)-3H-imidazo[4,5-b]pyridine-5-carboxylic acid] gave an EC50 of no more than 0.2 nM.
Work on `O=C(O)c1ccc2nc(CN3CCC(c4cccc5c4OC[C@H](c4ccc(Cl)cc4)O5)CC3)n(C[C@@H]3CCO3)c2n1` [Compound 111c, 2-((4-((S)-2-(4-chlorophenyl)-2,3-dihydrobenzo[b][1,4]dioxin-5-yl)piperidin-1-yl)methyl)-3-(((S)-oxetan-2-yl)methyl)-3H-imidazo[4,5-b]pyridine-5-carboxylic acid] yielded an EC50 of 20 to 200 nM.
With `O=C(O)c1ccc2nc(CN3CCC(c4cccc5c4OCC(c4cccc(Cl)c4)O5)CC3)n(C[C@@H]3CCO3)c2n1` (stereo partly drawn) [Compound 112a, 2-((4-(2-(3-chlorophenyl)-2,3-dihydrobenzo[b][1,4]dioxin-5-yl)piperidin-1-yl)methyl)-3-(((S)-oxetan-2-yl)methyl)-3H-imidazo[4,5-b]pyridine-5-carboxylic acid] the EC50 was 0.2 to 20 nM.
Work on `O=C(O)c1ccc2nc(CN3CCC(c4cccc5c4OCC(c4ccc(Cl)c(F)c4)O5)CC3)n(C[C@@H]3CCO3)c2n1` (stereo partly drawn) [Compound 113a, 2-((4-(2-(4-chloro-3-fluorophenyl)-2,3-dihydrobenzo[b][1,4]dioxin-5-yl)piperidin-1-yl)methyl)-3-(((S)-oxetan-2-yl)methyl)-3H-imidazo[4,5-b]pyridine-5-carboxylic acid] yielded an EC50 of 0.2 to 20 nM.
For `C[C@H]1CN(c2cccc3c2OCC(c2ccc(Cl)cc2)O3)CCN1Cc1nc2ccc(C(=O)O)nc2n1C[C@@H]1CCO1` (stereo partly drawn) [Compound 114a, 2-(((2S)-4-(2-(4-chlorophenyl)-2,3-dihydrobenzo[b][1,4]dioxin-5-yl)-2-methylpiperazin-1-yl)methyl)-3-(((S)-oxetan-2-yl)methyl)-3H-imidazo[4,5-b]pyridine-5-carboxylic acid], the EC50 was 0.2 to 20 nM.
In the case of `O=C(O)c1ccc2nc(CN3CCC(c4cccc5c4OCC(c4ccc(Cl)cc4)O5)CC3)n(C[C@@H]3CCO3)c2c1` (stereo partly drawn) [Compound 115a, 2-((4-(2-(4-chlorophenyl)-2,3-dihydrobenzo[b][1,4]dioxin-5-yl)piperidin-1-yl)methyl)-1-(((S)-oxetan-2-yl)methyl)-1H-benzo[d]imidazole-6-carboxylic acid], the EC50 is reported as no more than 0.2 nM.
With `Cc1ccc(C2COc3c(cccc3C3CCN(Cc4nc5ccc(C(=O)O)nc5n4C[C@@H]4CCO4)CC3)O2)cc1` (stereo partly drawn) [Compound 116a, 3-(((S)-oxetan-2-yl)methyl)-2-((4-(2-(p-tolyl)-2,3-dihydrobenzo[b][1,4]dioxin-5-yl)piperidin-1-yl)methyl)-3H-imidazo[4,5-b]pyridine-5-carboxylic acid] the EC50 was no more than 0.2 nM.
With `O=C(O)c1ccc2nc(CN3CCC(c4cccc5c4OCC(c4ccc(F)cc4)O5)CC3)n(C[C@@H]3CCO3)c2n1` (stereo partly drawn) [Compound 117a, 2-((4-(2-(4-fluorophenyl)-2,3-dihydrobenzo[b][1,4]dioxin-5-yl)piperidin-1-yl)methyl)-3-(((S)-oxetan-2-yl)methyl)-3H-imidazo[4,5-b]pyridine-5-carboxylic acid] the EC50 was 0.2 to 20 nM.
`N#Cc1ccc(C2COc3c(cccc3C3CCN(Cc4nc5ccc(C(=O)O)nc5n4C[C@@H]4CCO4)CC3)O2)cc1` (stereo partly drawn) [Compound 118a, 2-((4-(2-(4-cyanophenyl)-2,3-dihydrobenzo[b][1,4]dioxin-5-yl)piperidin-1-yl)methyl)-3-(((S)-oxetan-2-yl)methyl)-3H-imidazo[4,5-b]pyridine-5-carboxylic acid] showed an EC50 of no more than 0.2 nM.
For `N#Cc1ccc([C@@H]2COc3c(cccc3C3CCN(Cc4nc5ccc(C(=O)O)nc5n4C[C@@H]4CCO4)CC3)O2)cc1` [Compound 118b, 2-((4-((R)-2-(4-cyanophenyl)-2,3-dihydrobenzo[b][1,4]dioxin-5-yl)piperidin-1-yl)methyl)-3-(((S)-oxetan-2-yl)methyl)-3H-imidazo[4,5-b]pyridine-5-carboxylic acid], the EC50 was no more than 0.2 nM.
Compound `N#Cc1ccc([C@H]2COc3c(cccc3C3CCN(Cc4nc5ccc(C(=O)O)nc5n4C[C@@H]4CCO4)CC3)O2)cc1` [Compound 118c, 2-((4-((S)-2-(4-cyanophenyl)-2,3-dihydrobenzo[b][1,4]dioxin-5-yl)piperidin-1-yl)methyl)-3-(((S)-oxetan-2-yl)methyl)-3H-imidazo[4,5-b]pyridine-5-carboxylic acid] has an EC50 of 20 to 200 nM.
`O=C(O)c1ccc2nc(CN3CCC(c4cccc5c4OCC(c4ccc(C(F)(F)F)cc4)O5)CC3)n(C[C@@H]3CCO3)c2n1` (stereo partly drawn) [Compound 119a, 2-((4-(2-(4-(trifluoromethyl)phenyl)-2,3-dihydrobenzo[b][1,4]dioxin-5-yl)piperidin-1-yl)methyl)-3-(((S)-oxetan-2-yl)methyl)-3H-imidazo[4,5-b]pyridine-5-carboxylic acid] was tested, and the EC50 was no more than 0.2 nM.
With `O=C(O)c1ccc2nc(CN3CCC(c4cccc5c4OC[C@@H](c4ccc(Cl)cc4F)O5)CC3)n(C[C@@H]3CCO3)c2c1` [Compound 120b, 2-((4-((R)-2-(4-chloro-2-fluorophenyl)-2,3-dihydrobenzo[b][1,4]dioxin-5-yl)piperidin-1-yl)methyl)-1-((S)-oxetan-2-ylmethyl)-1H-benzo[d]imidazole-6-carboxylic acid] the EC50 was 0.2 to 20 nM.
With `O=C(O)c1ccc2nc(CN3CCC(c4cccc5c4OC[C@H](c4ccc(Cl)cc4F)O5)CC3)n(C[C@@H]3CCO3)c2c1` [Compound 120c, 2-((4-((S)-2-(4-chloro-2-fluorophenyl)-2,3-dihydrobenzo[b][1,4]dioxin-5-yl)piperidin-1-yl)methyl)-1-((S)-oxetan-2-ylmethyl)-1H-benzo[d]imidazole-6-carboxylic acid] the EC50 was 20 to 200 nM.
`O=C(O)c1ccc2nc(CN3CCN(c4cccc5c4OCC(c4ccc(Cl)cc4F)C5)CC3)n(C[C@@H]3CCO3)c2n1` (stereo partly drawn) [Compound 121a, 2-((4-(3-(4-Chloro-2-fluorophenyl)chroman-8-yl)piperazin-1-yl)methyl)-3-(((S)oxetan-2-yl)methyl)-3H-imidazo[4,5-b]pyridine-5-carboxylic acid] gave an EC50 of 20 to 200 nM.
`O=C(O)c1ccc2nc(CN3CCC(c4cccc5c4OCC(c4ccccc4F)C5)CC3)n(C[C@@H]3CCO3)c2n1` (stereo partly drawn) [Compound 122a, 2-((4-(3-(2-fluorophenyl) Chroman-8-yl)piperidin-1-yl)methyl)-3-(((S)-oxetan-2-yl)methyl)-3H-imidazo[4,5-b]pyridine-5-carboxylic acid] showed an EC50 of 20 to 200 nM.
In the case of `O=C(O)c1ccc2nc(CN3CCN(c4cccc5c4CCC(c4ccc(Cl)cc4F)O5)CC3)n(C[C@@H]3CCO3)c2n1` (stereo partly drawn) [Compound 123a, 2-((4-(2-(4-Chloro-2-fluorophenyl)chroman-5-yl)piperazin-1-yl)methyl)-3-((S)oxetan-2-ylmethyl)-3H-imidazo[4,5-b]pyridine-5-carboxylic acid], the EC50 is reported as 20 to 200 nM.
In the case of `O=C(O)c1ccc2nc(CN3CCC(c4cccc5c4OCC(c4ccc(Cl)cc4F)N5)CC3)n(C[C@@H]3CCO3)c2n1` (stereo partly drawn) [Compound 124a, 2-((4-(3-(4-chloro-2-fluorophenyl)-3,4-dihydro-2H-benzo[b][1,4]oxazin-8-yl)piperidin-1-yl)methyl)-3-(((S)-oxetan-2-yl)methyl)-3H-imidazo[4,5-b]pyridine-5-carboxylic acid], the EC50 is reported as 0.2 to 20 nM.
`O=C(O)c1ccc2nc(CN3CCC(c4cccc5c4OCC(c4ccccc4F)N5)CC3)n(C[C@@H]3CCO3)c2n1` (stereo partly drawn) [Compound 125a, 2-((4-(3-(2-fluorophenyl)-3,4-dihydro-2H-benzo[b][1,4]oxazin-8-yl)piperidin-1-yl)methyl)-3-(((S)-oxetan-2-yl)methyl)-3H-imidazo[4,5-b]pyridine-5-carboxylic acid] was tested, and the EC50 was 20 to 200 nM.
For `O=C(O)c1ccc2nc(CN3CCC(c4cccc5c4CCN(c4ccc(Cl)cc4)C5)CC3)n(C[C@@H]3CCO3)c2n1` [Compound 126a], the EC50 was greater than 200 nM.
With `CC1(c2ccc(Cl)cc2F)COc2c(cccc2C2CCN(Cc3nc4ccc(C(=O)O)nc4n3C[C@@H]3CCO3)CC2)O1` (stereo partly drawn) [Compound 127a, 2-((4-(2-(4-chloro-2-fluorophenyl)-2-methyl-2,3-dihydrobenzo[b][1,4]dioxin-5-yl)piperidin-1-yl)methyl)-3-((S)-oxetan-2-ylmethyl)-3H-imidazo[4,5-b]pyridine-5-carboxylic acid] the EC50 was 0.2 to 20 nM.

From patent US20250214999A1, “HETEROCYCLIC GLP-1 AGONISTS” (Gasherbrum Bio, Inc., priority 2020, published 2025)
